# Experimental data taken from US20080089860A1, “Therapeutic compositions and methods useful in treating cancer” (priority 2006, published 2008).
# “Also recorded” adds a separate entry of the source.
# Legend:
# WiT49-N1 cells = test: WiT49-N1 Wilms tumor cell growth, MTT assay; format: cell-based, human; settings: day 6 culture; killing at 100 μg/ml
# Protocol: (§1) For cell proliferation assays, cells were grown in 10% FCS culture medium containing various amounts of IFNs and/or sodium stibogluconate in 96 well plates and cultured at 37° C. for 3 or 6 days as indicated. The numbers of viable cells in proliferation assays were determined by MTT assays as described in Phatak et al., J. Immunol. 167, 3391 (2001).
# Renca cells = test: Renca cell growth in culture, MTT assay; format: cell-based, murine; settings: SSG 6.25-200 μg/ml, 6 days; listed as SSG
# Excerpt: Renca (Murphy, G. P., and W. J. Hrushesky. 1973. A murine renal cell carcinoma. J Natl Cancer Inst 50:1013), Jurkat (Gillis, S., and J. Watson. 1980. Biochemical and biological characterization of lymphocyte regulatory molecules. V. Identification of an interleukin 2-producing human leukemia T cell line. J Exp Med 152:1709) and WM9 (Forsberg, K., 1. Valyi-Nagy, C. H. Heldin, M. Herlyn, and B. Westermark. 1993. Platelet-derived growth factor (PDGF) in oncogenesis: development of a vascular connective tissue stroma in xenotransplanted human melanoma producing PDGF-BB. Proc Natl Acad Sci USA 90:393) cell lines were obtained from a colleague at the Cleveland Clinic Foundation (CCF) and cultured in RPMI 1640 medium supplemented with 10% fetal calf serum (FCS). […] SSG has been described previously (Yi, T., M. K. Pathak, D. J. Lindner, M. E. Ketterer, C. Farver, and E. C. Borden. 2002. Anticancer activity of sodium stibogluconate in synergy with IFNs. J Immunol 169:5978). For cell growth inhibition assays, cells were cultured in absence or presence of various amounts of SSG for 6 days with viable cells quantified by MTT assays as described elsewhere (Pathak, M. K., and T. Yi. 2001. Sodium stibogluconate is a potent inhibitor of protein tyrosine phosphatases and augments cytokine responses in hemopoietic cell lines. J Immunol 167:3391).
# [1] = Toxicity in nude mice (viability, body weight); format: in vivo
# Protocol: In light of the relatively rapid rate of clearance of the drug in vivo, 440 mg Sb/kg dosage was used to ensure the detection of the effectiveness of the drug for this initial study.
# As discussed above, the dosage of sodium stibogluconate used for the treatment of nude mice was 12 mg Sb/mouse, s.c., daily (or approximately 440 mg/kg body weight). […] As an initial step to assess the toxicity of such a high dosage of sodium stibogluconate in nude mice, the effect of sodium stibogluconate on the viability and body weights of WM9 xenografts nude mice during the 25 day period of the study was determined.
# Jurkat cells = test: IFN-gamma secretion by Jurkat cells, ELISA; format: cell-based, human; settings: 16 hrs
# Protocol: Jurkat cells were cultured in the absence or presence of various amounts of SSG for 16 hours. The cells and culture medium supernatants were separated by centrifugation (1,000 g, 10 min). The amounts of IFN-gamma in the culture medium supernatants were quantified using an ELISA kit (R.D. system, Minneapolis, Minn.) following the manufacturer's protocol.
# WM35 cells = test: WM35 melanoma cell growth; format: cell-based, human
# Protocol: as §1
# [2] = tested on: WM9 transfectants (vector, PRL-1, PRL-1R86); test: Growth of WM9 transfectants, MTT assay; format: cell-based, human; settings: 50 or 100 μg/ml
# Protocol: NIH3T3 (Yi, et al., Blood 85, 87 (1995)), WM9 (Forsberg, et al., Proc. Nat. Acad. Sci. USA 90, 393 (1993)), DU145 (Mickey, et al., Cancer Res. 37, 4049 (1977)), LoVo (Drewinko, et al., Cancer Res. 36, 467 (1976)), HEY (Buick, et al., Cancer Res. 45, 3668 (1985)), U251 (Yoshida, et al., Cancer 50, 410 (1982)), A549 (Giard, et al., J. Natl. Cancer Inst. 51, 1417 (1973)) and SK-N-SH (Helson, et al., Cancer Res. 35, 2594 (1975)) cell lines have been described and were cultured in RPMI 1640 supplemented with 10% fetal calf serum (FCS). For measurement of sodium stibogluconate effects on cell growth in vitro, cells were cultured in the absence (−) or presence (+) of various amounts of sodium stibogluconate for 6 days with viable cells quantified by MTT assays (Mosmann, J. Immunol. Methods 65, 55 (1983)). Percentages of growth inhibition by sodium stibogluconate were calculated (.+−.x %).
# The effects of sodium stibogluconate on intracellular PTPases were assessed using NIH3T3 or WM9 transfectants. […]
# To further assess whether expression of the PRL-1R86 mutant affects sodium stibogluconate-induced growth inhibition, the transfectants were cultured in the absence or presence of sodium stibogluconate for 6 days with viable cells determined by MTT assays. […]
# DR cells = test: DR lymphoma cell growth, MTT assay; format: cell-based, human; settings: day 6; single agent at 50 μg/ml and 100 μg/ml
# Protocol: as §1
compound,measurement,setting,value
O.O.O.O.O.O.O.O.O.O=C([O-])[C@@H]1[O][Sb]2([O-])([O][Sb]34([OH])[O][C@H]([C@H](O)CO)[C@H]([O]3)[C@H](C(=O)[O-])[O]4)[O][C@H]([C@H](O)CO)[C@@H]1[O]2.[Na+].[Na+].[Na+] [sodium stibogluconate],sensitivity of WiT49-N1 cells,WiT49-N1 cells,sensitive; also recorded: complete or near complete killing
same,Renca cell growth in culture,Renca cells,failed to inhibit Renca cell proliferation in culture
same,tolerability,[1]; 12 mg Sb daily (440 mg Sb/kg daily),well tolerated with no serious side effects
same,"tolerated daily dose in mice, pilot study",[1]; approximately 700-800 mg Sb/kg,20 mg Sb
same,survival of WM9-inoculated nude mice,[1]; day 25,survived until the end of the study
same,IFN-gamma secretion by Jurkat T cells,Jurkat cells,increased amounts of IFN-gamma
same,effect on WM35 melanoma cell line,WM35 cells,minimally affected
same,growth inhibition of R86 cells,[2],only modest growth inhibition
same,growth inhibition of DR cells,DR cells,complete or near complete killing
